In patent US12723063B2, “GIPR-agonist compounds” (Eli Lilly and Company, priority 2019, dated 2026):
*1 amine or outer side, *2 acyl side, *3 side chain or, on linkers, in order; H or OH if unused. Where a SMILES comes first, the peptide text is derived from it. Side-chain parts run from the residue outwards. [ ]: non-standard residue; d: D form. The star is where a group is joined. C20 diacid = O=C(O)CCCCCCCCCCCCCCCCCCC(=O)*; γGlu = O=C(O)[C@H](CCC(=O)[*:2])N[*:1]; αMeF = C[C@](N)(Cc1ccccc1)C(=O)O; 4Pal = N[C@@H](Cc1ccncc1)C(=O)O; αMeL = CC(C)C[C@](C)(N)C(=O)O; AEEA = NCCOCCOCC(=O)O; Aib = CC(C)(N)C(=O)O

Experiments:
[1] = target: T1, human GLP-1 receptor (GLP-1R) (Homo sapiens, UniProt P43220); experiment: cAMP functional assay (HTRF) in HEK293 cells in presence of 0.1% casein; format: cell-based; settings: HEK293 cells expressing human GLP-1R, geometric mean, read-out: hGLP1R cAMP Rel EC50 nM (SEM, n)
T1 construct: expressed in transfected cells; host or cells: HEK293

[2] = target: T2, human glucagon receptor (GcgR) (Homo sapiens, UniProt P47871); experiment: as above; format: cell-based; settings: HEK293 cells expressing human GcgR, geometric mean, read-out: hGcgR cAMP Rel EC50 nM (SEM, n)
T2 construct: expressed in transfected cells; host or cells: HEK293

human GLP-1R = target: T3, human GLP-1R (Homo sapiens, UniProt P43220); experiment: [125I]-GLP-1 binding, SPA with WGA beads, 0.1% bacitracin; settings: geometric mean, read-out: hGLP1R Ki
T3 construct: expressed in transfected cells; crude membranes
Summary of the method: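 Binding buffer was 25 mM HEPES pH 7.4 with 2.5 mM CaCl2, 1 mM MgCl2, 0.1% (w/v) bacitracin, 0.003% Tween-20 and EDTA-free protease inhibitors. Four-parameter regression gave IC50, converted to Ki (geometric mean, SEM, n independent days).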

T2 sequence (P47871 26-477): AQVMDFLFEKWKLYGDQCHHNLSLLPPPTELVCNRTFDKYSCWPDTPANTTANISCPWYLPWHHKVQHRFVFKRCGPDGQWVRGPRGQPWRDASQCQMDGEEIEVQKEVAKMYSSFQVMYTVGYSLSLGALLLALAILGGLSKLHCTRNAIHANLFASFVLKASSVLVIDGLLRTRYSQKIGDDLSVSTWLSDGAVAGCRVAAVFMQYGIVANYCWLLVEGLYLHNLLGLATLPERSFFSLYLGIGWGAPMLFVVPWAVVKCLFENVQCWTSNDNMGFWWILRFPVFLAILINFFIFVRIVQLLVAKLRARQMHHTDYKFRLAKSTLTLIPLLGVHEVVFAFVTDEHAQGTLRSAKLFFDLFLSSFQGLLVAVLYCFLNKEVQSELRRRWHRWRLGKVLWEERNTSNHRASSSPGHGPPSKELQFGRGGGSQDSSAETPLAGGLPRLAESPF
T3 sequence (P43220 24-463): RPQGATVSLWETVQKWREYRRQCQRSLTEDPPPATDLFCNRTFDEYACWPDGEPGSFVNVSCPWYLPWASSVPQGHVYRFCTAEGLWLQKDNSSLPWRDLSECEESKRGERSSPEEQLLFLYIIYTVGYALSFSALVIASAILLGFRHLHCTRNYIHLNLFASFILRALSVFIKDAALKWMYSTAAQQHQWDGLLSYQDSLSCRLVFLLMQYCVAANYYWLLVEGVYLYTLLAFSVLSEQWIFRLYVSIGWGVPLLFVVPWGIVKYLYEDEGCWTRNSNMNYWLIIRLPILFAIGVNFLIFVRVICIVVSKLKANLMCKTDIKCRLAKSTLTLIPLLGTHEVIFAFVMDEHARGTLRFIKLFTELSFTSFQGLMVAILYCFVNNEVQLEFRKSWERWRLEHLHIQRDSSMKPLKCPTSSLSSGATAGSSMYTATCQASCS
T1 sequence (P43220 24-463): as above

| SMILES | EC50 [1] [nM] | EC50 [2] [nM] | Ki (human GLP-1R) [nM] |
| --- | --- | --- | --- |
| CC[C@H](C)[C@H](NC(=O)[C@H](Cc1ccccc1)NC(=O)[C@@H](NC(=O)CNC(=O)[C@H](CCC(=O)O)NC(=O)C(C)(C)NC(=O)[C@@H](N)Cc1ccc(O)cc1)[C@@H](C)O)C(=O)N[C@@H](CO)C(=O)N[C@@H](CC(=O)O)C(=O)N[C@@H](Cc1ccc(O)cc1)C(=O)N[C@@H](CO)C(=O)N[C@H](C(=O)N[C@@](C)(CC(C)C)C(=O)N[C@@H](CC(C)C)C(=O)N[C@@H](CC(=O)O)C(=O)N[C@@H](CCCCN)C(=O)N[C@@H](CCCCNC(=O)COCCOCCNC(=O)COCCOCCNC(=O)CC[C@H](NC(=O)CCCCCCCCCCCCCCCCCCC(=O)O)C(=O)O)C(=O)N[C@@H](Cc1c[nH]cn1)C(=O)N[C@@H](CCC(N)=O)C(=O)NC(C)(C)C(=O)N[C@@H](CCC(=O)O)C(=O)N[C@@H](Cc1ccccc1)C(=O)N[C@H](C(=O)N[C@@H](CCC(=O)O)C(=O)N[C@@H](Cc1ccncc1)C(=O)N[C@@H](CC(C)C)C(=O)N[C@@H](CC(C)C)C(=O)N[C@@H](C)C(=O)N[C@H](C(=O)NCC(=O)N1CCC[C@H]1C(=O)N[C@@H](CO)C(=O)N[C@@H](CO)C(=O)NCC(=O)N[C@@H](C)C(=O)N1CCC[C@H]1C(=O)N1CCC[C@H]1C(=O)N1CCC[C@H]1C(=O)N[C@@H](CO)C(N)=O)[C@@H](C)O)C(C)C)[C@@H](C)CC [Example 58] (H-Y[Aib]EGTFISDYSI[αMeL]LDKK([AEEA-AEEA-γGlu-C20 diacid])HQ[Aib]EFVE[4Pal]LLATGPSSGAPPPS-NH2) | > 5000 | > 5000 | 459 |
| CC[C@H](C)[C@H](NC(=O)[C@H](Cc1ccccc1)NC(=O)[C@@H](NC(=O)CNC(=O)[C@H](CCC(=O)O)NC(=O)C(C)(C)NC(=O)[C@@H](N)Cc1ccc(O)cc1)[C@@H](C)O)C(=O)N[C@@H](CO)C(=O)N[C@@H](CC(=O)O)C(=O)N[C@@H](Cc1ccc(O)cc1)C(=O)N[C@@H](CO)C(=O)N[C@H](C(=O)N[C@@](C)(CC(C)C)C(=O)N[C@@H](CC(C)C)C(=O)N[C@@H](CC(=O)O)C(=O)N[C@@H](CCCCN)C(=O)N[C@@H](CCCCNC(=O)COCCOCCNC(=O)COCCOCCNC(=O)CC[C@H](NC(=O)CCCCCCCCCCCCCCCCCCC(=O)O)C(=O)O)C(=O)N[C@@H](Cc1c[nH]cn1)C(=O)N[C@@H](CCC(N)=O)C(=O)NC(C)(C)C(=O)N[C@@H](CCC(=O)O)C(=O)N[C@@H](Cc1ccccc1)C(=O)N[C@H](C(=O)N[C@@H](CCC(=O)O)C(=O)N[C@@H](Cc1ccncc1)C(=O)N[C@@H](CC(C)C)C(=O)N[C@@H](CC(C)C)C(=O)N[C@@H](C)C(=O)N[C@@H](C)C(=O)NCC(=O)N1CCC[C@H]1C(=O)N[C@@H](CO)C(=O)N[C@@H](CO)C(=O)NCC(=O)N[C@@H](C)C(=O)N1CCC[C@H]1C(=O)N1CCC[C@H]1C(=O)N1CCC[C@H]1C(=O)N[C@@H](CO)C(N)=O)C(C)C)[C@@H](C)CC [Example 59] | > 5000 | > 5000 | 109 |
| CC[C@H](C)[C@H](NC(=O)[C@H](CO)NC(=O)[C@H](Cc1ccc(O)cc1)NC(=O)[C@H](CC(=O)O)NC(=O)[C@H](CO)NC(=O)[C@@H](NC(=O)[C@](C)(Cc1ccccc1)NC(=O)[C@@H](NC(=O)CNC(=O)[C@H](CCC(=O)O)NC(=O)C(C)(C)NC(=O)[C@@H](N)Cc1ccc(O)cc1)[C@@H](C)O)[C@@H](C)CC)C(=O)N[C@@](C)(CC(C)C)C(=O)N[C@@H](CC(C)C)C(=O)N[C@@H](CC(=O)O)C(=O)N[C@@H](CCCCN)C(=O)N[C@@H](CCCCNC(=O)COCCOCCNC(=O)COCCOCCNC(=O)CC[C@H](NC(=O)CCCCCCCCCCCCCCCCCCC(=O)O)C(=O)O)C(=O)N[C@@H](Cc1c[nH]cn1)C(=O)N[C@@H](CCC(N)=O)C(=O)NC(C)(C)C(=O)N[C@@H](CCC(=O)O)C(=O)N[C@@H](Cc1ccccc1)C(=O)N[C@H](C(=O)N[C@@H](CCC(=O)O)C(=O)N[C@@H](Cc1ccncc1)C(=O)N[C@@H](CC(C)C)C(=O)N[C@@H](CC(C)C)C(=O)N[C@@H](C)C(=O)N[C@@H](CCC(N)=O)C(=O)NCC(=O)N1CCC[C@H]1C(=O)N[C@@H](CO)C(=O)N[C@@H](CO)C(=O)NCC(=O)N[C@@H](C)C(=O)N1CCC[C@H]1C(=O)N1CCC[C@H]1C(=O)N1CCC[C@H]1C(=O)N[C@@H](CO)C(N)=O)C(C)C [Example 60] (H-Y[Aib]EGT[αMeF]ISDYSI[αMeL]LDKK([AEEA-AEEA-γGlu-C20 diacid])HQ[Aib]EFVE[4Pal]LLAQGPSSGAPPPS-NH2) | 71 | > 5000 | 51.4 |
| CC[C@H](C)[C@H](NC(=O)[C@H](CO)NC(=O)[C@H](Cc1ccc(O)cc1)NC(=O)[C@H](CC(=O)O)NC(=O)[C@H](CO)NC(=O)[C@@H](NC(=O)[C@](C)(Cc1ccccc1)NC(=O)[C@@H](NC(=O)CNC(=O)[C@H](CCC(=O)O)NC(=O)C(C)(C)NC(=O)[C@@H](N)Cc1ccc(O)cc1)[C@@H](C)O)[C@@H](C)CC)C(=O)N[C@@](C)(CC(C)C)C(=O)N[C@@H](CC(C)C)C(=O)N[C@@H](CC(=O)O)C(=O)N[C@@H](CCCCN)C(=O)N[C@@H](CCCCNC(=O)COCCOCCNC(=O)COCCOCCNC(=O)CC[C@H](NC(=O)CCCCCCCCCCCCCCCCCCC(=O)O)C(=O)O)C(=O)N[C@@H](Cc1c[nH]cn1)C(=O)N[C@@H](CCC(N)=O)C(=O)NC(C)(C)C(=O)N[C@@H](CCC(=O)O)C(=O)N[C@@H](Cc1ccccc1)C(=O)N[C@H](C(=O)N[C@@H](CCC(=O)O)C(=O)N[C@@H](Cc1ccncc1)C(=O)N[C@@H](CC(C)C)C(=O)N[C@@H](CC(C)C)C(=O)N[C@@H](C)C(=O)N[C@H](C(=O)NCC(=O)N1CCC[C@H]1C(=O)N[C@@H](CO)C(=O)N[C@@H](CO)C(=O)NCC(=O)N[C@@H](C)C(=O)N1CCC[C@H]1C(=O)N1CCC[C@H]1C(=O)N1CCC[C@H]1C(=O)N[C@@H](CO)C(N)=O)[C@@H](C)O)C(C)C [Example 61] (H-Y[Aib]EGT[αMeF]ISDYSI[αMeL]LDKK([AEEA-AEEA-γGlu-C20 diacid])HQ[Aib]EFVE[4Pal]LLATGPSSGAPPPS-NH2) | 192 | > 5000 | 135 |
| CC[C@H](C)[C@H](NC(=O)[C@H](CO)NC(=O)[C@H](Cc1ccc(O)cc1)NC(=O)[C@H](CC(=O)O)NC(=O)[C@H](CO)NC(=O)[C@@H](NC(=O)[C@](C)(Cc1ccccc1)NC(=O)[C@@H](NC(=O)CNC(=O)[C@H](CCC(=O)O)NC(=O)C(C)(C)NC(=O)[C@@H](N)Cc1ccc(O)cc1)[C@@H](C)O)[C@@H](C)CC)C(=O)N[C@@](C)(CC(C)C)C(=O)N[C@@H](CC(C)C)C(=O)N[C@@H](CC(=O)O)C(=O)N[C@@H](CCCCN)C(=O)N[C@@H](CCCCNC(=O)COCCOCCNC(=O)COCCOCCNC(=O)CC[C@H](NC(=O)CCCCCCCCCCCCCCCCCCC(=O)O)C(=O)O)C(=O)N[C@@H](Cc1c[nH]cn1)C(=O)N[C@@H](CCC(N)=O)C(=O)NC(C)(C)C(=O)N[C@@H](CCC(=O)O)C(=O)N[C@@H](Cc1ccccc1)C(=O)N[C@H](C(=O)N[C@@H](CCC(=O)O)C(=O)N[C@@H](Cc1ccncc1)C(=O)N[C@@H](CC(C)C)C(=O)N[C@@H](CC(C)C)C(=O)N[C@@H](C)C(=O)N[C@@H](C)C(=O)NCC(=O)N1CCC[C@H]1C(=O)N[C@@H](CO)C(=O)N[C@@H](CO)C(=O)NCC(=O)N[C@@H](C)C(=O)N1CCC[C@H]1C(=O)N1CCC[C@H]1C(=O)N1CCC[C@H]1C(=O)N[C@@H](CO)C(N)=O)C(C)C [Example 62] (H-Y[Aib]EGT[αMeF]ISDYSI[αMeL]LDKK([AEEA-AEEA-γGlu-C20 diacid])HQ[Aib]EFVE[4Pal]LLAAGPSSGAPPPS-NH2) | 58.2 | > 5000 | 47.6 |
| CC[C@H](C)[C@H](NC(=O)[C@H](Cc1ccccc1)NC(=O)[C@@H](NC(=O)CNC(=O)[C@H](CCC(=O)O)NC(=O)C(C)(C)NC(=O)[C@@H](N)Cc1ccc(O)cc1)[C@@H](C)O)C(=O)N[C@@H](CO)C(=O)N[C@@H](CC(=O)O)C(=O)N[C@@H](Cc1ccc(O)cc1)C(=O)N[C@@H](CO)C(=O)N[C@H](C(=O)N[C@@](C)(CC(C)C)C(=O)N[C@@H](CC(C)C)C(=O)N[C@@H](CC(=O)O)C(=O)N[C@@H](CCCCN)C(=O)N[C@@H](CCCCNC(=O)COCCOCCNC(=O)COCCOCCNC(=O)CC[C@H](NC(=O)CCCCCCCCCCCCCCCCCCC(=O)O)C(=O)O)C(=O)N[C@@H](Cc1c[nH]cn1)C(=O)N[C@@H](CCC(N)=O)C(=O)NC(C)(C)C(=O)N[C@@H](CCC(=O)O)C(=O)N[C@@H](Cc1ccccc1)C(=O)N[C@H](C(=O)N[C@@H](CCC(=O)O)C(=O)N[C@@H](Cc1ccc(O)cc1)C(=O)N[C@@H](CC(C)C)C(=O)N[C@@H](CC(C)C)C(=O)N[C@@H](CCC(=O)O)C(=O)N[C@@H](CCC(N)=O)C(=O)NCC(=O)N1CCC[C@H]1C(=O)N[C@@H](CO)C(=O)N[C@@H](CO)C(=O)NCC(=O)N[C@@H](C)C(=O)N1CCC[C@H]1C(=O)N1CCC[C@H]1C(=O)N1CCC[C@H]1C(=O)N[C@@H](CO)C(N)=O)C(C)C)[C@@H](C)CC [Example 63] (H-Y[Aib]EGTFISDYSI[αMeL]LDKK([AEEA-AEEA-γGlu-C20 diacid])HQ[Aib]EFVEYLLEQGPSSGAPPPS-NH2) | > 5000 | 1170 | 327 |
